Tests used:
[1] = biological target: T1, GDP-loaded KRAS4b (amino acids 1-169) G12C/C118S protein (Homo sapiens, UniProt P01116, C118S/G12C); experiment: Covalent cysteine 12 modification by MALDI-TOF MS, GDP-loaded KRAS G12C; type: binding; conditions: 15 minutes reaction time point
T1 construct: KRAS4b (amino acids 1-169) G12C/C118S protein; made in house
Outline: (§1)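 Covalent adduct formation measured by linear-mode MALDI-TOF MS as modified peak height over summed peak heights, 15 min time point reported. Reactions: KRAS4b 1-169 G12C/C118S (1 μM, loaded with GppNHp, GTP or GDP) plus compound at 1:2.5 ratio, pH 7.3 HEPES/NaCl/MgCl2, room temperature.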

[2] = biological target: T2, Avi-KRAS G12C (1-169) GppNHp/RAF1 RBD-3×FLAG (52-151) (Homo sapiens, UniProt P01116, G12C); experiment: Raf1 RBD-KRAS G12C-GppNHp disruption assay (protein:protein interaction HTRF); type: biochemical
T2 construct: Avi-KRAS G12C (1-169) GppNHp; Avi (N)
Experimental: Biological Example 2: Disrupting KRAS G12C-Effector Binding (Protein: Protein Interaction HTRF Assay)
A protein: protein interaction (PPI) Homogeneous Time Resolved Fluorescence (HTRF) assay was used to determine the effectiveness of compounds of the present disclosure in disrupting KRAS G12C protein and effector (RAF1 Ras Binding Domain (RBD)) binding.
The HTRF assay used the following reagents and proteins: 50 nM Avi-KRAS G12C (1-169) GppNHp/RAF1 RBD-3×FLAG (52-151); 35 nM Avi-PI3K RBD-3×FLAG; Assay Buffer: 50 mM Tris pH 7.5, 100 mM NaCl, 5 mM MgCl2, 0.1% BSA, 0.01% Tween 20, 10% DMSO; Bead Buffer: 50 mM Tris pH 7.5, 0.01% Tween 20; Assay volume: 20 μL (384 well plate-low volume format); and Compound titration: 30-0.02 μM, 3× dilution series.
The HTRF assay employed the following protocol:
Compounds were dispensed in assay plate (384-well, Grenier Bio-One #784075) using Echo (model 555) with dose response settings: 200 nL final volume, titration from 100 μM as a 10-point dilution series. KRAS proteins were prepared in assay buffer, and dispensed on plates, 5 μL per well, then incubated for 1 h at room temperature, with 700 rpm shaking. RAF1 RBD were prepared in assay buffer, dispensed onto plates, 5 μL per well, and then incubated for 1 h at room temperature, with 700 rpm shaking. Reagent mix was then prepared and dispensed on plates, 10 μL per well, and then incubated for 1 h at room temperature, with 700 rpm shaking.
Plates were analyzed on an Envision plate reader using the following setting: Excitation 320 nm, Bandwidth 75 nm; Emission 615 nm, Bandwidth 85 nm; Gain 100%; Flashes 100; Lag 60 μs. Data was reported as percentage of activity, with DMSO as 100%. Data was plotted and analyzed using Prism 8.
The percent of modification of GppNHp, GTP, or GDP loaded KRAS G12C by MALDI-TOF MS, biochemical Raf1 RBD-KRAS G12C-GppNHp disruption assay IC50, and pERK inhibition IC50 of selected compounds described herein are shown in Table 4. For percent of modification at 15 minutes (MALDI-TOF MS) of GppNHp, GTP, or GDP loaded KRAS G12C: A: percent of modification ≥70%; B: 50≤percent of modification <70%; C: 10%≤percent of modification <50%; D: percent of modification <10%. […] For pERK inhibition in H358 cell assay: A: IC50≤0.1 μM; B: 0.1 μM<IC50≤1 μM; C: IC50>1 μM. Blanks in the table represent that compound was not tested in the indicated assay.

[3] = biological target: T3, GTP-loaded KRAS4b (amino acids 1-169) G12C/C118S protein (Homo sapiens, UniProt P01116, C118S/G12C); experiment: Covalent cysteine 12 modification by MALDI-TOF MS, GTP-loaded KRAS G12C; type: binding; conditions: 15 minutes reaction time point
T3 construct: KRAS4b (amino acids 1-169) G12C/C118S protein; made in house
Outline: as §1

pERK in NCI-H358 cells = experiment: Cell-based pERK HTRF assay (pERK inhibition in H358 cells); conditions: Homo sapiens, NCI-H358, 0.5 h, 30 min incubation
Outline: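 NCI-H358 cells were seeded at 4×10^4 cells/well in RPMI/10% FBS, then treated next day for 30 min at 0.25% DMSO (9-point, 3-fold series from 75 μM). Lysates were read by HTRF (d2/Eu cryptate antibody pair, 615 nm emission) after 4–24 h at room temperature to give pERK IC50.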

[4] = biological target: T4, GppNHp-loaded KRAS4b (amino acids 1-169) G12C/C118S protein (Homo sapiens, UniProt P01116, C118S/G12C); experiment: Covalent cysteine 12 modification by MALDI-TOF MS, GppNHp-loaded KRAS G12C; type: binding; conditions: 15 minutes reaction time point
T4 construct: KRAS4b (amino acids 1-169) G12C/C118S protein; made in house
Outline: as §1

GDP-KRAS G12C percent of modification [1] | IC50 [2] [nM] | GTP-KRAS G12C percent of modification [3] | IC50 (pERK in NCI-H358 cells) [nM] | GppNHp-KRAS G12C percent of modification [4] | SMILES
A (percent of modification ≥70%) | < 500 | – | – | – | C=CC(=O)N1CC[C@H](N(C)c2nc(OC[C@@]34CCCN3C[C@H](F)C4)nc3c(F)c(-c4ccc(F)c5sc(N)c(C#N)c45)c(C(F)(F)F)cc23)[C@@H]1C [Compound 5]
B (50≤percent of modification <70%) | < 500 | C (10%≤percent of modification <50%) | – | – | C=CC(=O)N1CC[C@@H](N(C)c2nc(OC[C@@]34CCCN3C[C@H](F)C4)nc3c(F)c(-c4ccc(F)c5sc(N)c(C#N)c45)c(C(F)(F)F)cc23)[C@H]1C [Compound 6]
– | < 500 | A (percent of modification ≥70%) | < 100 | – | C=CC(=O)N1CC[C@@H](N(C)c2nc(OC[C@@]34CCCN3C[C@H](OC)C4)nc3c(F)c(-c4ccc(F)c5sc(N)c(C#N)c45)c(Cl)cc23)[C@H]1C [Compound 160]

The next lines start with the compound.

SMILES | GDP-KRAS G12C percent of modification [1] | IC50 [2] [nM] | GTP-KRAS G12C percent of modification [3] | IC50 (pERK in NCI-H358 cells) [nM] | GppNHp-KRAS G12C percent of modification [4]
C=CC(=O)N1CC[C@@H](N(C)c2nc(OC[C@@H]3CCCN3CC)nc3c(F)c(-c4ccc(F)c5sc(N)c(C#N)c45)c(Cl)cc23)[C@H]1C [Compound 89] | A (percent of modification ≥70%) | < 500 | – | < 100 | –
[2H]C1([2H])CN2C[C@H](F)C[C@]2(COc2nc(N(C)[C@@H]3CCN(C(=O)C=C)[C@@H]3C)c3cc(C(F)(F)F)c(-c4ccc(F)c5sc(N)c(C#N)c45)c(F)c3n2)C1 [Compound 128, 4-(4-(((2R,3R)-1-acryloyl-2-methylpyrrolidin-3-yl)(methyl)amino)-8-fluoro-2-(((2R,7aS)-2-fluorotetrahydro-1H-pyrrolizin-7a(5H)-yl-6,6-d2)methoxy)-6-(trifluoromethyl)quinazolin-7-yl)-2-amino-7-fluorobenzo[b]thiophene-3-carbonitrile] | – | < 500 | – | < 100 | A (percent of modification ≥70%)
C=CC(=O)N1CC[C@@H](N(C)c2nc(OC[C@]34CCCN3C[C@H](F)C4)nc3c(F)c(-c4ccc(F)c5sc(N)c(C#N)c45)c(Cl)cc23)[C@H]1C [Compound 162] | – | < 500 | – | < 100 | A (percent of modification ≥70%)
C=CC(=O)N1CC[C@@H](N(CC)c2nc(OC[C@]34CCCN3C[C@H](F)C4)nc3c(F)c(-c4ccc(F)c5sc(N)c(C#N)c45)ccc23)[C@H]1C [Compound 170] | – | < 500 | – | < 100 | A (percent of modification ≥70%)
